The values below come from ChEMBL document CHEMBL5696442, “Discovery of type II inhibitors of TGFβ-activated kinase 1 (TAK1) and mitogen-activated protein kinase kinase kinase kinase 2 (MAP4K2)” (J Med Chem, 2015).

Experiment [1] has as its system Mast/stem cell growth factor receptor Kit (Homo sapiens), P10721 [D816H]. As to the kind of experiment: Inhibition of KIT D816H mutant (unknown origin) at 1 uM by Ambit Kinomescan binding assay relative to control; values are per cent of control.
For experiment [2], the target named is RAC-gamma serine/threonine-protein kinase (Homo sapiens) (UniProt Q9Y243). As to the kind of experiment: Inhibition of AKT3 (unknown origin) at 1 uM by Ambit Kinomescan binding assay relative to control.
The target of experiment [3] is T1, Mitogen-activated protein kinase kinase kinase 15 (Homo sapiens) (UniProt Q6ZN16).
T1 sequence (whole entry): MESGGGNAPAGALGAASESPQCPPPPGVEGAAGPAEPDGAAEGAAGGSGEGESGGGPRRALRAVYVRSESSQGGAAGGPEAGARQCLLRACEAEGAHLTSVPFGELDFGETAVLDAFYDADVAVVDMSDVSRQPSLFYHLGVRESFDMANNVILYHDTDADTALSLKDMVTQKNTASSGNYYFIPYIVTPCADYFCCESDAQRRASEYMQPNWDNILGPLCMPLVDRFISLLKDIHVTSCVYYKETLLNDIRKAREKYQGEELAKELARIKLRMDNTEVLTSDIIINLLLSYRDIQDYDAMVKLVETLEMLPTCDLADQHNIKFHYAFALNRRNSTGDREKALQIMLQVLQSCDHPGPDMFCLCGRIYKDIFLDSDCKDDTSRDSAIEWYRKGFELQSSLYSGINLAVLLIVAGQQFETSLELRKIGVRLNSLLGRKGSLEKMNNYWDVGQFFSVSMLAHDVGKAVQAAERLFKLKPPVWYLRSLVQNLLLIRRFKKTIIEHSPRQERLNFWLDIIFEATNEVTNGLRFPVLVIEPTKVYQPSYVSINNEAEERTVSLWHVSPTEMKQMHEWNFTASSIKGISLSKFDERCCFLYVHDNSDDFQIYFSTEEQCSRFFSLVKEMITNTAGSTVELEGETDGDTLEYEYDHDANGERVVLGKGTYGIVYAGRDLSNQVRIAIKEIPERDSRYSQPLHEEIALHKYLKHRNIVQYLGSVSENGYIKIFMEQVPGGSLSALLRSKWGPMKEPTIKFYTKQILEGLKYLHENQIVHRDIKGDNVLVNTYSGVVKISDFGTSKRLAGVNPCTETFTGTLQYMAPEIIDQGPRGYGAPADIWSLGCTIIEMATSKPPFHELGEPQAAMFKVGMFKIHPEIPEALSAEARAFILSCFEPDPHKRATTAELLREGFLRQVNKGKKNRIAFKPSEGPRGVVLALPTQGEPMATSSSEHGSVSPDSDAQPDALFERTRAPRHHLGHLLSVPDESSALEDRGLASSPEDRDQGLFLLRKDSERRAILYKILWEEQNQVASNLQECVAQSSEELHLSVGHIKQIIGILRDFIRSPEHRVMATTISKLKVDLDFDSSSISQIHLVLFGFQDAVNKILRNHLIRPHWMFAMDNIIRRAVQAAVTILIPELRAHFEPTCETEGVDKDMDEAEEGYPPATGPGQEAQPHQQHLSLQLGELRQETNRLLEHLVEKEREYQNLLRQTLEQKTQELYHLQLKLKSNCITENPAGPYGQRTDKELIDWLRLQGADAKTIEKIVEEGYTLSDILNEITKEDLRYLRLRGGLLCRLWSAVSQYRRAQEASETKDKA
As to the kind of experiment: Inhibition of MAP3K15 (unknown origin) at 1 uM by Ambit Kinomescan binding assay relative to control; values are per cent of control.

For experiment [4], the target named is Ankyrin repeat and protein kinase domain-containing protein 1 (Homo sapiens) (UniProt Q8NFD2). As to the kind of experiment: Inhibition of ANKK1 (unknown origin) at 10 uM by Ambit Kinomescan binding assay relative to control.
The target in experiment [5] is Cyclin-dependent kinase 8/19 (Homo sapiens) (UniProt P49336+Q9BWU1). Briefly: Inhibition of CDK8/11 K2 labeling site in human Huh-7 cells at 1 uM by KiNativ Profiling analysis relative to control. It counts as cell-based.
Experiment [6] addresses Serine/threonine-protein kinase WNK4 (Homo sapiens) (UniProt Q96J92). Briefly: Inhibition of Wnk4 K2 labeling site in human Huh-7 cells at 10 uM by KiNativ Profiling analysis relative to control. Type of experiment: cell-based.
Experiment [7] has as its target T2, Serine/threonine-protein kinase greatwall (Homo sapiens) (UniProt Q96GX5).
T2 sequence (whole entry): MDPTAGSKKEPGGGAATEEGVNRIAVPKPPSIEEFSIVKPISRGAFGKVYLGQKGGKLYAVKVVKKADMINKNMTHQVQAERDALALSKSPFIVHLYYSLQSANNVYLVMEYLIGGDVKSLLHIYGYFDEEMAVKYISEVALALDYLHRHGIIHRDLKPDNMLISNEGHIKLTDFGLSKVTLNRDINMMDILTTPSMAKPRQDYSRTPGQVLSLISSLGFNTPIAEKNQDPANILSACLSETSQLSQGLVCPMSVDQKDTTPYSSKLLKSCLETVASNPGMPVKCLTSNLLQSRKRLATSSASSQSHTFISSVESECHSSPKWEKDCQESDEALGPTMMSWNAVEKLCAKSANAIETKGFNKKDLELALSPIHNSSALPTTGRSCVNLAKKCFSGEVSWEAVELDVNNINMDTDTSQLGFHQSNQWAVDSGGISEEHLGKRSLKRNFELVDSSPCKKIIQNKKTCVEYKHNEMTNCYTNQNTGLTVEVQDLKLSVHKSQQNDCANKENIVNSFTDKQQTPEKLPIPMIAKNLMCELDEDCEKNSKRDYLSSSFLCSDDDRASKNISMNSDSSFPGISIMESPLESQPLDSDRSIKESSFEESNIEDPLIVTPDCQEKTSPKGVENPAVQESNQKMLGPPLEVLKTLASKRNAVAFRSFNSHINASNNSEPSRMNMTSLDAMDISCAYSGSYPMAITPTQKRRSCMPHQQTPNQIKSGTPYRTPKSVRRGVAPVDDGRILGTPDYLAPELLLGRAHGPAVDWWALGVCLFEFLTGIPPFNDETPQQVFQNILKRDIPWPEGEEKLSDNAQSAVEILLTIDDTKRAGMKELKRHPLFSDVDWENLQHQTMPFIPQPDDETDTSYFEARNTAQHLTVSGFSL
As to the kind of experiment: Inhibition of MASTL K2 labeling site in human Huh-7 cells at 1 uM by KiNativ Profiling analysis relative to control. Type of experiment: cell-based.

Experiment [8] is described as follows: Inhibition of Wnk1/2/3 K2 labeling site in human Huh-7 cells at 1 uM by KiNativ Profiling analysis relative to control. As to conditions: condition cancer.
For experiment [9], the target named is Phosphatidylinositol 4,5-bisphosphate 3-kinase catalytic subunit alpha isoform (Homo sapiens) (UniProt P42336). Briefly: Inhibition of PIK3CA ATP labeling site in human Huh-7 cell lysate at 1 uM by KiNativ Profiling analysis relative to control. It counts as subcellular.
The target in experiment [10] is Cyclin-dependent kinase 13 (Homo sapiens) (UniProt Q14004). As to the kind of experiment: Inhibition of CHED Lys2 labeling site harbouring DIKCSNILLNNR in human Huh-7 cell lysate at 1 uM by KiNativ Profiling analysis relative to control. Type of experiment: subcellular.

Chain of Phosphatidylinositol 4,5-bisphosphate 3-kinase catalytic subunit alpha isoform (Homo sapiens) (P42336 whole entry, canonical isoform): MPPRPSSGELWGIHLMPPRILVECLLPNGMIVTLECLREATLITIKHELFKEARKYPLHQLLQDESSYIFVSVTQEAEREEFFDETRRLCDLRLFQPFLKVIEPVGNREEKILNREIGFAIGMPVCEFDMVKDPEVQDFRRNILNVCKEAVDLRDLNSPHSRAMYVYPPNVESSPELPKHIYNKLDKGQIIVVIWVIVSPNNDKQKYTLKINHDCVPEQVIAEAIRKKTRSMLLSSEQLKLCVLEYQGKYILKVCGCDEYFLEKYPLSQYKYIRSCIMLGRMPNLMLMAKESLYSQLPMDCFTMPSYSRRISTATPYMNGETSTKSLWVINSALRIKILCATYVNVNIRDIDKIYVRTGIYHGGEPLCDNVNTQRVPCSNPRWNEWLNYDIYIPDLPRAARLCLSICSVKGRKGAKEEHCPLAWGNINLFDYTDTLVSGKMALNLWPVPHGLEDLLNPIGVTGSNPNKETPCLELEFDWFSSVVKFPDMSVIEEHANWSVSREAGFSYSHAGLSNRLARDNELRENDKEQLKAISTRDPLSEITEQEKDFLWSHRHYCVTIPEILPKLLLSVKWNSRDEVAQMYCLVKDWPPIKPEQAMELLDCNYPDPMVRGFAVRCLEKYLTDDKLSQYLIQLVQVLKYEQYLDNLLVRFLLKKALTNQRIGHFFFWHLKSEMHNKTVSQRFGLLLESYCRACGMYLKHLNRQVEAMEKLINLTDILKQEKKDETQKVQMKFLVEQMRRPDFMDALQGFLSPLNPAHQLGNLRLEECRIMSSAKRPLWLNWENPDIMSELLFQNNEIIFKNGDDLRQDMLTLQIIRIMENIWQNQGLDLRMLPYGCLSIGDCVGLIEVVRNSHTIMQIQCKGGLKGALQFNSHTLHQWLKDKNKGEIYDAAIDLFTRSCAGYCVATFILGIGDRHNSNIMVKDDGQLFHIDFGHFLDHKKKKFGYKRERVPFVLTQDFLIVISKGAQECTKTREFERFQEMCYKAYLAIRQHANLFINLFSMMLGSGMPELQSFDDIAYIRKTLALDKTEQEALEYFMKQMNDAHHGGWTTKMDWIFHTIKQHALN
Chain of Ankyrin repeat and protein kinase domain-containing protein 1 (Homo sapiens) (Q8NFD2 whole entry, the tested form may be a part): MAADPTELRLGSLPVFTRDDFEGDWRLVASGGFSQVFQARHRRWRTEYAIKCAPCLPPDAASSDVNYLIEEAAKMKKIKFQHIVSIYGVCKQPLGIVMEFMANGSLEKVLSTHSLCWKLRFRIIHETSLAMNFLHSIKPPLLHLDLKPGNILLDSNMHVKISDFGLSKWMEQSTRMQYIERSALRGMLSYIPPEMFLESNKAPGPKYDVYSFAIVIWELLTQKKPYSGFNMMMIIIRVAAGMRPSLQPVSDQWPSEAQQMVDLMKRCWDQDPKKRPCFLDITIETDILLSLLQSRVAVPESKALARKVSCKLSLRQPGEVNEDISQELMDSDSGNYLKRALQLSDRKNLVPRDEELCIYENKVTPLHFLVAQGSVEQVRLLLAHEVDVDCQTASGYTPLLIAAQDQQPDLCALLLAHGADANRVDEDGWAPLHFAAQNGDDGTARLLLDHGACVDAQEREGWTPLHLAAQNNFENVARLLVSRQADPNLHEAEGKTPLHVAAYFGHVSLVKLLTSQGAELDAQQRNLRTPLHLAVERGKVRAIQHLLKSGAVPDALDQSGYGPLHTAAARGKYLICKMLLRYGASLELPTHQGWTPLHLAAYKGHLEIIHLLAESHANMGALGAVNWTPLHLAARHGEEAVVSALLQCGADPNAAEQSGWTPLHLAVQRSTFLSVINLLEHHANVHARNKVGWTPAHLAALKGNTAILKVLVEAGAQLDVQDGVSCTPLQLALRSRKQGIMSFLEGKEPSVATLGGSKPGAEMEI
Chain of Mast/stem cell growth factor receptor Kit (Homo sapiens), P10721 [D816H] (P10721 whole entry D816H): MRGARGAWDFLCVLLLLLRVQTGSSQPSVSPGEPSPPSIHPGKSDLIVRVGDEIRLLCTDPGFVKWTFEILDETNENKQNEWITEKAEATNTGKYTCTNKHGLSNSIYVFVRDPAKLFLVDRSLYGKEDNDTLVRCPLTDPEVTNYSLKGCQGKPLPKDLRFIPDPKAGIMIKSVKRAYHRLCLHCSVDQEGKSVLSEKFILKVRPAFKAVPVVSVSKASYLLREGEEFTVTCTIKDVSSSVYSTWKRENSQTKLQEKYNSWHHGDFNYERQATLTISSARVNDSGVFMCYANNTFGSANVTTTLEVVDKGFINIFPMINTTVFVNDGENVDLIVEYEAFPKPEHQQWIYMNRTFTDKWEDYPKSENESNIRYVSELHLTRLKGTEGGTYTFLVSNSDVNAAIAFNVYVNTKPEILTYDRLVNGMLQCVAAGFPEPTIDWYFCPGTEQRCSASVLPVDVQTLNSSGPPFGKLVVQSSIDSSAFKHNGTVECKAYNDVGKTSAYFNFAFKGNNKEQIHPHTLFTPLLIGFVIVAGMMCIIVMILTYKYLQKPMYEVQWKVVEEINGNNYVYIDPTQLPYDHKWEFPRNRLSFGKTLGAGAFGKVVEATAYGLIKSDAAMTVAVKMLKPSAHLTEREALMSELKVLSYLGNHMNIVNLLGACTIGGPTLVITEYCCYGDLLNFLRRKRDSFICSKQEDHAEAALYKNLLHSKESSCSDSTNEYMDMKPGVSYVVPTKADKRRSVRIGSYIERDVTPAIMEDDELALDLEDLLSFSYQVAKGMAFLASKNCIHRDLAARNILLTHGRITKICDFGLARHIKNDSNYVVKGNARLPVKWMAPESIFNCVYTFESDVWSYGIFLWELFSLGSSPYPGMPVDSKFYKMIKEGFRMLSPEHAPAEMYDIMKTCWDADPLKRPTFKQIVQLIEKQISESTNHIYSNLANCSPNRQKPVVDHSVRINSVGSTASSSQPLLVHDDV
Chain of RAC-gamma serine/threonine-protein kinase (Homo sapiens) (Q9Y243 whole entry): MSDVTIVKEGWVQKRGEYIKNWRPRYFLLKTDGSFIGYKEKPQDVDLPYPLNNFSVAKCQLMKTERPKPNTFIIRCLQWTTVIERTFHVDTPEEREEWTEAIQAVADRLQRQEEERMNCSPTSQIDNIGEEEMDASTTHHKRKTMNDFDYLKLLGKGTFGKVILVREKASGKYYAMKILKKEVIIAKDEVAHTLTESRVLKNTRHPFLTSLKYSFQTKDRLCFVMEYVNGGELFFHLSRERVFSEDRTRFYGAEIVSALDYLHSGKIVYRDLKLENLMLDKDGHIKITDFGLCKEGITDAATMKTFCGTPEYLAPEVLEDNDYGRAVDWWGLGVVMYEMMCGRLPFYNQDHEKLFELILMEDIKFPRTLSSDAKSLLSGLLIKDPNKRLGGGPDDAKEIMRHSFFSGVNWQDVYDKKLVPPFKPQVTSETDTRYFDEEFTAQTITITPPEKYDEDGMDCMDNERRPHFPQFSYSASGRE
Chain of Cyclin-dependent kinase 8/19 (Homo sapiens) (P49336 whole entry, looked up): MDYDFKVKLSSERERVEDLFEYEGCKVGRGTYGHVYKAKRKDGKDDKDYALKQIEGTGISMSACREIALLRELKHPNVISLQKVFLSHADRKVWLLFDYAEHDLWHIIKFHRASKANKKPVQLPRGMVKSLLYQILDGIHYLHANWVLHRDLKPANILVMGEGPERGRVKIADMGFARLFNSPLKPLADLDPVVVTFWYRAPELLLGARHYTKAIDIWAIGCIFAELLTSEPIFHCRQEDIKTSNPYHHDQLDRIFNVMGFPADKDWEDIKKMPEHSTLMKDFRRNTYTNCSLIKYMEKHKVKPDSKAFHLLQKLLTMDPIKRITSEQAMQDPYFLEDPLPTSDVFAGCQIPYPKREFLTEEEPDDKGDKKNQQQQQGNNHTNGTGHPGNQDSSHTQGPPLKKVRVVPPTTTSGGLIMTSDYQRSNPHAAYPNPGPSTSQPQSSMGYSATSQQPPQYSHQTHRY
Chain of Cyclin-dependent kinase 8/19 (Homo sapiens) (Q9BWU1 whole entry, looked up): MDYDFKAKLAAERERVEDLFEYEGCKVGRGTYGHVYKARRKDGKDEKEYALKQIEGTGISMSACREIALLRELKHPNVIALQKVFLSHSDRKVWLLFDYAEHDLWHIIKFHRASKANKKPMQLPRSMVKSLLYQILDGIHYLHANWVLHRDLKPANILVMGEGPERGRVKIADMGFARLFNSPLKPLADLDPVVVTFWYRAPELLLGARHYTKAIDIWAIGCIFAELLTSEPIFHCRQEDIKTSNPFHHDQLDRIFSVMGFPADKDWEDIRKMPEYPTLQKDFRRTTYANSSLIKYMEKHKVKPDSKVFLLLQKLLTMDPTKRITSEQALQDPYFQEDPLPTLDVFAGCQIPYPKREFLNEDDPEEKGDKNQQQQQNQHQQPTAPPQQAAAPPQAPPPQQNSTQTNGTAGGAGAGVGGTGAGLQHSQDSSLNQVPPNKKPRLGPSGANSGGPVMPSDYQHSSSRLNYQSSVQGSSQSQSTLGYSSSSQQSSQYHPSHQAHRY

For orientation: inhibition means the relative decrease from the control value, in per cent. Regarding `CCN1CCN(Cc2ccc(NC(=O)c3ccc(C)c(/C=C/c4cnc5[nH]ccc5c4OC)c3)cc2C(F)(F)F)CC1`, the residual activity turned out to be 25% in experiment [1] and 100% in experiment [3]. In addition, in experiment [2], the inhibition amounted to 100%.

Turning to `CCN1CCN(Cc2ccc(NC(=O)c3ccc(C)c(Oc4ccnc5[nH]ccc45)c3)cc2C(F)(F)F)CC1`, the inhibition in [4] was 23%; in experiment [5], -4.7%; in [6], -1.5%; in experiment [7], -2.1%. The inhibition at 1 µM in experiment [8] was -17.1%.

As to `CNc1cc(Oc2cc(C(=O)Nc3cc(N4CCN(C)CC4)cc(C(F)(F)F)c3)ccc2C)ncn1`, the inhibition stood at 12.4% in [9] and 14% in experiment [10].
